These are literature values, as cited in patent US20210316038A1, “ANTIBIOTIC ELUTING POLY(ESTER UREA) FILMS, MESHES AND POUCHES FOR INFECTION CONTROL OF IMPLANTABLE MEDICAL DEVICES” (The University of Akron, priority 2019, published 2021).

As for `Cc1nnc(SCC2=C(C(=O)O)N3C(=O)[C@@H](NC(=O)Cn4cnnn4)[C@H]3SC2)s1` [Cefazolin], the solubility in water result is recorded as “Cefazolin has high solubility in water (>100 mg/ml”.
